Data set [1] can be described thus: Cytotoxicity against cat CRFK cells assessed as reduction in cell viability after 5 days by MTT assay. It counts as cell-based, Felis catus. The settings on record: read-out: ID50.
For another data set, the system named is Feline leukemia virus. Description: Antiviral activity against Feline leukemia virus infected in cat CRFK cells assessed as inhibition of viral replication after 7 days by ELISA. In kind it is functional. The settings on record: 168 h, read-out: ED50 (the source's name).
Data set [2] in a line: Ratio of ID50 for cat CRFK cells to ED50 for Feline leukemia virus.

For the molecule `Cc1cn([C@H]2C[C@H](N=[N+]=[N-])[C@@H](CO)O2)c(=O)[nH]c1=O` [ZIDOVUDINE], the CC50 at 120 h in data set [1] turned out to be 1520 µM. Moreover, the EC50 in the data set on Feline leukemia virus was found to be 0.1 µM. Also, the Ratio in data set [2] stood at 15170.

For `Nc1ccn([C@H]2CC[C@@H](CO)O2)c(=O)n1` [ZALCITABINE], the CC50 at 120 h in data set [1] is 1990 µM. Moreover, the EC50 with Feline leukemia virus turned out to be 15 µM. The Ratio in data set [2] was 133.

For the molecule `COC1=C(Br)[C@@H](O)[C@]2(C=C1Br)CC(C(=O)NCC(O)c1cc(Br)c(OCC(=O)CNC(=O)C3=NO[C@]4(C=C(Br)C(OC)=C(Br)[C@@H]4O)C3)c(Br)c1)=NO2` (some centres not stated), the CC50 at 120 h in data set [1] is greater than 449 µM. Moreover, the EC50 in the data set with Feline leukemia virus stood at 42 µM. For the same molecule, the Ratio in data set [2] is greater than 11.

For the molecule `COC1=C(Br)[C@@H](O)[C@]2(C=C1Br)CC(C(=O)NCC(O)c1cc(Br)c(OCC(O)CNC(=O)C3=NO[C@]4(C=C(Br)C(OC)=C(Br)[C@@H]4O)C3)c(Br)c1)=NO2` (some centres not stated) [FISTULARIN 3], in data set [1], the CC50 at 120 h was greater than 449 µM. For the same molecule, in the data set on Feline leukemia virus, the EC50 amounted to 22 µM. Moreover, the Ratio in data set [2] is greater than 20.

Values taken from ChEMBL document CHEMBL1159023, “Fistularin 3 and 11-ketofistularin 3. Feline leukemia virus active bromotyrosine metabolites from the marine sponge Aplysina archeri” (J Nat Prod, 1992).
